According to patent publication US8637521B2, “Substituted piperazin-2,5-diones and their use as multifunctional bioactive compounds” (priority 2006, dated 2014):
Square brackets hold non-standard residues; d marks the D form. Peptide text beside a SMILES is read from it.

What was measured:
[1] = biological target: μ-receptor (isolated guinea pig ileum, GPI) (Cavia porcellus, UniProt P97266); assay: Peripheral opioid activity: inhibition of electrically-induced contractions of isolated guinea pig ileum (GPI); conditions: for Value of pD2 (M ± m): negative logarithm of EC50; for EC50: read-out: Median EC50 in M, concentration reducing contraction amplitude by 50%, 5 replications
Sequence of μ-receptor (isolated guinea pig ileum, GPI) (P97266 whole entry): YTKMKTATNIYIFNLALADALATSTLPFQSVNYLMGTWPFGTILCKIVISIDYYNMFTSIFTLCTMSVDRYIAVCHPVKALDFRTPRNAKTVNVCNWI
Procedure: The segment of GPI about 1 cm long was placed into a 10-ml organ bath containing Krebs solution at 34° C. […] Resting tension of the organ was 1 g. The segment of GPI was stimulated by single pulses duration 1 ms with 0.1 Hz at 80 V. The solution with isolated organs was constantly aerated. The contractions were recorded in an isometrical mode by a sensor K 30 (Hugo Sachs Elektronic KG) with paper register Rikadenki-series (Japan).
The substances tested were dissolved in distilled water and added cumulatively to the organ bath at a volume of 5 to 30 mcl. Each subsequent substance was added after the isolated organs were washed 3 or 4 times for 12-15 min. On the basis of the data obtained, dose-effects curves were plotted and the activity of substances was expressed by IC50 or pD2. The pD2 index was equal to a negative decimal logarithm of the substance concentration causing a 50% of the maximal effect.
New dermorphin analogues were tested in the standard model of Guinea pig ileum binding test.
For confirmation of opioid activity, the specific antagonist naloxson was used in concentration of 10^−5M. Each molecule was tested in 5 independent replications and relative activity was calculated as negative logarithm of EC50 (pD2).

mice F1(CBAxC57D16) = assay: Analgesic activity, tail flick test, water 48° C., intraperitoneal; assay type: in vivo; conditions: Table 10; for Initial sensitivity level: before injection
Procedure: Two hundred and twenty mice F1(CBAxC57D16) first generation hybrids were used for testing of analgesic activity using the “tail flick” test. The water temperature was at 48° C. The maximal effect was for the period of 30 seconds. All peptides were injected intraperitoneally in the doses of 5, 10 or 20 mg/kg. Analgesic effect was estimated in the time interval of 15 to 120 min after peptide injection. Student's t-criterion was used for statistical calculations of the results. Statistical significance were at the level of p≦0.05.

BALB/c male mice = assay: Antinociceptive activity, tail flick test with heat radiation, intragastral or intraperitoneal; assay type: in vivo
Procedure: For estimation of oral activity of novel cyclopeptides of the present invention, the “tail flick” test was used. The results were compared with those obtained using intraperitoneal administration.
Antinociceptive activity of the peptides of the present invention was assessed in experiments on BALB/c male mice weighing 22 to 24 g. The peptides were dissolved in saline and administered intraperitoneally or intragastrally.
The “Tail flick” test (D'Amour, F. E. et al. “A Method for Determining Loss of Pain Sensation”, J. Pharmacol. Exp. Ther., Vol. 72, Pages 74 to 79, 1941) was performed on an analgesimeter type 812, Hugo Sachs Electronick KG. Antinociceptive activity was defined as the absence of tail flick response on stimulation with a focused bundle of heat radiation with 6 sec at baseline response of 2.0-3.0 seconds.
Statistical treatment of the results was carried out by the Student's paired t-test.

[2] = system: CFU-S population in the bone marrow; assay: Spleen colony formation (CFU-S) by bone marrow cells of peptide-treated intact donor mice; assay type: in vivo, (CBA×C57 B1) F1 mice; conditions: for Colony count CFU-8 - S per 10^5 cells M ± m: control 9.9 ± 0.7; for Colony count CFU-8 - S per 10^5 cells M ± M: control 11.2 ± 0.4
Procedure: The effect of tested substances on intact bone marrow was studied in vivo. […] Two days after administration of preparation, the mice were killed. Bone marrow suspension was prepared and injected intravenously to lethally irradiated mice. The colony forming activity was evaluated at day 8. Test animals were (CBA×C57 B1) F1 mice (30 mice per trial, average from 3 tests).

[3] = Table 3, 0.2 microgram per mouse per os
[4] = Table 2, donor treated i/p, colonies day 8
[5] = Table 3, 0.2 microgram per mouse i/p
[6] = Table 3, 2.0 microgram per mouse per os
[7] = Table 3, 20.0 microgram per mouse per os
[8] = Table 3, 200.0 microgram per mouse per os

C[C@@H](NC(=O)[C@H](Cc1ccccc1)NC(=O)[C@@H](C)NC(=O)[C@@H](N)Cc1ccc(O)cc1)C(=O)N[C@@H](Cc1ccc(O)cc1)C(=O)N1CCC[C@H]1C(=O)N[C@@H](CO)C(N)=O [Compound 49, H-Tyr-D-Ala-Phe-D-Ala-Tyr-Pro-Ser-NH2] (H-Y[dA]F[dA]YPS-NH2)
Value of pD2 (M ± m) [1]: 7.55 ± 0.11 | EC50 [1]: 30 nM

COC(=O)[C@H](Cc1c[nH]c2ccccc12)NC(=O)CC[C@@H]1NC(=O)[C@H](CCCCNC(=O)[C@@H](C)NC(=O)[C@H](Cc2ccccc2)NC(=O)[C@@H](C)NC(=O)[C@@H](N)Cc2ccc(O)cc2)NC1=O [Compound 45, Cyclo-[L-Lys(H-Tyr-D-Ala-Phe-D-Ala)-L-Glu(L-Trp-OMe)]]
Value of pD2 (M ± m) [1]: 5.68 ± 0.09 | EC50 [1]: 2000 nM

Cyclo-[L-Lys(H-Tyr-D-Ala-Phe-D-Ala-Tyr-Pro-Ser)-L-Glu(L-Trp-OH)]
Initial sensitivity level (mice F1(CBAxC57D16); 10 mg/kg group): 3.7 ± 0.2 s | Effect duration (mice F1(CBAxC57D16); 10 mg/kg i.p., 15 min): 6.8 ± 0.6 s | Effect duration (mice F1(CBAxC57D16); 10 mg/kg i.p., 30 min): 6.3 ± 0.7 s | Effect duration (mice F1(CBAxC57D16); 10 mg/kg i.p., 45 min): 8.4 ± 1.4 s | Effect duration (mice F1(CBAxC57D16); 10 mg/kg i.p., 60 min): 7.7 ± 1.7 s | Effect duration (mice F1(CBAxC57D16); 10 mg/kg i.p., 90 min): 6.7 ± 1.0 s | Effect duration (mice F1(CBAxC57D16); 10 mg/kg i.p., 120 min): 4.6 ± 0.3 s | Initial sensitivity level (mice F1(CBAxC57D16); 20 mg/kg group): 3.4 ± 0.2 s | Effect duration (mice F1(CBAxC57D16); 20 mg/kg i.p., 15 min): 7.8 ± 0.5 s | Effect duration (mice F1(CBAxC57D16); 20 mg/kg i.p., 30 min): 8.3 ± 0.8 s | Effect duration (mice F1(CBAxC57D16); 20 mg/kg i.p., 45 min): 8.7 ± 1.2 s | Effect duration (mice F1(CBAxC57D16); 20 mg/kg i.p., 60 min): 9.5 ± 1.2 s | Effect duration (mice F1(CBAxC57D16); 20 mg/kg i.p., 90 min): 9.7 ± 1.3 s | Effect duration (mice F1(CBAxC57D16); 20 mg/kg i.p., 120 min): 8.2 ± 1.7 s | Initial sensitivity level, mean (BALB/c male mice; Table 11, oral 50 mg/kg group, before administration): 2.2 ± 0.1 s | Initial sensitivity level, mean (BALB/c male mice; Table 12, intraperitoneal 10 mg/kg group, before injection): 2.1 ± 0.1 s | Effect duration (BALB/c male mice; Table 12, intraperitoneal 10 mg/kg, 15 min, cut-off 6 sec): 4.1 ± 0.4 s

CC1NC(=O)C(CC(=O)NC(Cc2c[nH]c3ccccc23)C(=O)[O-])NC1=O.[Na+] (stereo not shown) [cyclo-DAla-DAsp-(DTrp-ONa)]
% suppression [2, 3]: 55% | Colony count CFU-8 - S per 10^5 cells M ± m [2, 3]: 6.8 ± 0.8 per 10^5 cells

γDGlu-DTrp [Thymodepressin, reference compound]
% suppression ([2]; Table 2, donor treated i/p): 55% | Colony count CFU-8 - S per 10^5 cells M ± M [2, 4]: 6.3 ± 0.6 per 10^5 cells | % suppression [2, 5]: 51% | Colony count CFU-8 - S per 10^5 cells M ± m [2, 5]: 5.7 ± 0.4 per 10^5 cells | % suppression [2, 3]: 0% | Colony count CFU-8 - S per 10^5 cells M ± m [2, 3]: 10.2 ± 0.3 per 10^5 cells | % suppression [2, 6]: 33% | Colony count CFU-8 - S per 10^5 cells M ± m [2, 6]: 8.0 ± 0.5 per 10^5 cells | % suppression [2, 7]: 41% | Colony count CFU-8 - S per 10^5 cells M ± m [2, 7]: 6.4 ± 0.5 per 10^5 cells | % suppression [2, 8]: 52% | Colony count CFU-8 - S per 10^5 cells M ± m [2, 8]: 5.1 ± 0.2 per 10^5 cells | effect on CFU-S population in the bone marrow of intact mice ([2]; text statement on Table 2): decreased the CFU-S population in the bone marrow

C[C@@H](NC(=O)[C@@H](N)Cc1ccc(O)cc1)C(=O)N[C@@H](Cc1ccccc1)C(=O)NCC(=O)N[C@@H](Cc1ccc(O)cc1)C(=O)N1CCC[C@H]1C(=O)N[C@@H](CO)C(N)=O [Compound 48, H-Tyr-D-Ala-Phe-Gly-Tyr-Pro-Ser-NH2]
Value of pD2 (M ± m) [1]: 8.56 ± 0.12 | EC50 [1]: 2.5 nM

C[C@@H](NC(=O)[C@H](Cc1ccccc1)NC(=O)[C@@H](C)NC(=O)[C@@H](N)Cc1ccc(O)cc1)C(=O)N[C@@H](Cc1ccc(O)cc1)C(=O)N1CCC[C@H]1C(=O)N[C@@H](CO)C(=O)NCCCC[C@@H]1NC(=O)[C@H](CCC(=O)N[C@@H](Cc2c[nH]c3ccccc23)C(=O)O)NC1=O [Compound 47, Cyclo-[L-Lys(H-Tyr-D-Ala-Phe-D-Ala-Tyr-Pro-Ser)-L-Glu(L-Trp-OH)]]
Value of pD2 (M ± m) [1]: 7.52 ± 0.07 | EC50 [1]: 33 nM

C[C@H]1NC(=O)[C@@H](CCC(=O)N[C@H](Cc2c[nH]c3ccccc23)C(=O)[O-])NC1=O.[Na+] [cyclo-DAla-DGlu-(DTrp-ONa)]
% suppression ([2]; Table 2, donor treated i/p): 70% | Colony count CFU-8 - S per 10^5 cells M ± M [2, 4]: 5.0 ± 0.3 per 10^5 cells | % suppression ([2]; Table 2, donor treated per os): 58% | Colony count CFU-8 - S per 10^5 cells M ± M ([2]; Table 2, donor treated per os): 6.0 ± 0.7 per 10^5 cells | % suppression [2, 3]: 59% | Colony count CFU-8 - S per 10^5 cells M ± m [2, 3]: 5.3 ± 0.6 per 10^5 cells
